From US11014908B2, “Chemical compounds” (Pfizer Inc., priority 2018, dated 2021)

Legend:
Hb in human whole blood = target: T1, Hb in human whole blood (Homo sapiens, UniProt P68871+P69905); experiment: Whole blood oxygen affinity assay (Hemox analyzer), human blood; details: 1 mM compound, 1 hour at 25 C, relative to DMSO
T1 construct: measured in human, dog, and mouse whole blood; from tissue; host or cells: human whole blood
From the text: Whole Blood Oxygen Affinity Assay
Oxygen affinity is a marker of the ability of Hb to bind and release oxygen in solution. It can be determined in whole blood by measuring the percentage of oxygenated and deoxygenated Hb present at a given oxygen concentration. Oxygen affinity is expressed as the p50, the partial pressure of oxygen at which 50% of the Hb in solution has oxygen bound, or the p20, the partial pressure of oxygen at which 20% of the Hb in solution has oxygen bound.
To determine the effects of compounds of the invention on oxygen affinity the p50 and p20 were measured in human, dog, and mouse whole blood using a Hemeox Analyzer (TCS Scientific). The blood was spiked with a compound of the invention to a concentration of 1 mM and incubated for 1 hour at 25 C with constant rotation. A concentration of 1 mM of compound was selected to approximate 20% hemoglobin occupancy in whole blood. Controls with the same concentration of DMSO, but no compound were incubated in the same way at the same time. Following incubation, samples were immediately assayed for oxygen affinity using the Hemox analyzer. Fifty μL of blood sample was diluted into 5 mL of hemox buffer (TCS Scientific), which had been pre-incubated to 37 C. Following dilution, samples were loaded into the analysis chamber, and fully oxygenated using compressed air. Once samples had reached an pO2 of >150 torr, the measurement was initiated by switching to N2, and the percent oxyhemoglobin as a function of partial pressure was recorded. The p20 and p50 of each sample were recorded from the instrument readout. Data are reported as the percent (%) change relative to DMSO according to the following calculations: […]

[1] = target: T2, purified sickle cell hemoglobin (HbS) (Homo sapiens, UniProt P68871+P69905, E7V); experiment: Binding affinity to purified HbS by Surface Plasmon Resonance (SPR); details: crosslinked biotinylated HbS, 1:1 binding model
T2 construct: HbS was obtained from the blood of homozygous S/S patients; from tissue; host or cells: red blood cells of homozygous S/S patients
Method in brief: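 Patient-derived HbS, purified and crosslinked between beta subunits (Lys82-Lys82), biotinylated and captured on streptavidin sensor at 4000–5000 RU. Running buffer 100 mM potassium phosphate pH 7.5, 1 mM EDTA, 0.1 mg/mL BSA, 1% DMSO; 2 min association, ≥5 min dissociation, ≥4 concentrations; Kd from 1:1 model fit.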

Townes SCD mice = experiment: Chronic dosing study (BID, 15 days) in Townes SCD mice; type: in vivo, mouse; details: 200 mg/kg BID for 15 days, Townes SCD mice, vs vehicle; for sVCAM1, Change (decrease): ELISA
Procedure: Following 15 days of dosing, blood samples were collected from all animals to run in the Hemeox analyzer to generate oxygen affinity curves, complete blood analysis was performed using Idexx hematology Analyzer, and cell sickling assessed as described before. Soluble Vascular Adhesion Molecule 1 levels (sVCAM1) were assessed by Enzyme linked immunosorbent assay (ELISA) from R&D systems. Results are presented below in Tables 7, 8 and 9.

Reduction in p20 (%) Human (Hb in human whole blood) [%]	Reduction in p50 (%) Human (Hb in human whole blood) [%]	Kd [1] [nM]	Structure (SMILES)	sVCAM1, Change (decrease) (Townes SCD mice) [% decrease]	Hb, Change (increase) (Townes SCD mice) [% increase]	Hematocrit, Change (increase) (Townes SCD mice) [% increase]	RBC sickling, Change (decrease) (Townes SCD mice) [% decrease]	RBCs, Change (increase) (Townes SCD mice) [% increase]	Reticulocytes, Change (decrease) (Townes SCD mice) [% decrease]	p20, Change (decrease) (Townes SCD mice) [% decrease]	p50, Change (decrease) (Townes SCD mice) [% decrease]
25 ± 9	14 ± 10	37	C[C@H](Oc1cc2cc(F)cc(F)c2nc1N)c1cc(C(=O)O)ccc1-n1cccn1 [Example 21, 3-{(1S)-1-[(2-amino-6,8-difluoroquinolin-3-yl)oxy]ethyl}-4-(1H-pyrazol-1-yl)benzoic Acid]	6.57 ± 3.75	43.7 ± 9.83	29.1 ± 11.2	30.8 ± 14.5	44.6 ± 9.04	32.7 ± 9.37	76.1 ± 13.9	26.2 ± 9.7
24 ± 19	12 ± 9	34	C[C@H](Oc1cc2cc(F)ccc2nc1N)c1nc(O)ccc1-n1cccn1 [Example 58, 6-{(1S)-1-[(2-amino-6-fluoroquinolin-3-yl)oxy]ethyl}-5-(1H-pyrazol-1-yl)pyridin-2-ol]	9.98 ± 7.1	42.4 ± 4.2	30.9 ± 0.7	37.8 ± 9.0	39.2 ± 9.3	54.7 ± 2.4	84.4 ± 2.6	53.7 ± 21.2
